According to paper PMC7496508, “Modular Medical Imaging Agents Based on Azide–Alkyne Huisgen Cycloadditions: Synthesis and Pre‐Clinical Evaluation of ^18F‐Labeled PSMA‐Tracers for Prostate Cancer Imaging” (Chemistry (Weinheim an Der Bergstrasse, Germany), 2020):
Where “and” joins values, the source holds several entries; their conditions need not be identical. Identical values can stand only once.

Tests used:
PSMA [1] = target: T1, PSMA (Homo sapiens, UniProt Q04609); test: competitive binding radioassay with [18F]PSMA-1007 as radioactive competitor on LNCaP cells
T1 construct: host or cells: LNCaP cells
T1 sequence (Q04609 whole entry): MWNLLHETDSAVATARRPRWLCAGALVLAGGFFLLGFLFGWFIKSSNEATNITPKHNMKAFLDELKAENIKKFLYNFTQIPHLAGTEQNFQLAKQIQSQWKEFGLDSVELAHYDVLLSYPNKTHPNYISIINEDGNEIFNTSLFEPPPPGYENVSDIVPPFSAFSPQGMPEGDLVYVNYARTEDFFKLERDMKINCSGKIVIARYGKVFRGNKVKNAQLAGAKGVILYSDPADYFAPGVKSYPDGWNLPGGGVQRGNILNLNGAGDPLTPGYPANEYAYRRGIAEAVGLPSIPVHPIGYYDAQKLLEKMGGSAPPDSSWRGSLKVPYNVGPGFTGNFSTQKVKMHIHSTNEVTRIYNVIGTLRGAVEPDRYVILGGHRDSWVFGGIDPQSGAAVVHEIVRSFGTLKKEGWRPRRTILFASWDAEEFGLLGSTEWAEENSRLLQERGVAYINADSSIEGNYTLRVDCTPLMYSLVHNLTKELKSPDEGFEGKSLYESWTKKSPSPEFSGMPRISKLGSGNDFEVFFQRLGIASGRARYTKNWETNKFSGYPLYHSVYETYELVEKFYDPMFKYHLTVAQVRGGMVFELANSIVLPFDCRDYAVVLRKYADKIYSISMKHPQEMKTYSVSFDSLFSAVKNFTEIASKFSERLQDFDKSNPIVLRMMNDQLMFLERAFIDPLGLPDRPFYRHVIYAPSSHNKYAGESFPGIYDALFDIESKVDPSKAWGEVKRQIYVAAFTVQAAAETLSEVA
Experimental: During the pre‐clinical evaluation of [^18F]PSMA‐MIC01, many hospitals including the University Medical Center Groningen changed from using [^68Ga]PSMA‐11 to [^18F]PSMA‐1007. Therefore, the binding affinities for the 2nd generation PSMA‐tracers‐tracers were determined in a radioassay using [^18F]PSMA‐1007 as radioactive competitor (Figure 1 D). page 20: Table S3. Counts per minute (CPM) of the 3 indidicually measured triplicates of [18F]PSMA-MIC01 of n- octanol and PBS Octanol (CPM) PBS (CPM) BLK (CPM) LogD Mean SD […] No 1.2 2995.66 4176463.25 58.39 -3.15 […] No 2.3 1020.97 1916376.47 30.41 -3.29 -3.22 0.09 6. Cell culture. Prostate cancer cell lines PC-3 and LNCaP were obtained from the American Type Culture Collection (ATCC, Manassas, VA). Cells were cultured in RPMI-1640 (Lonza, Swiss), supplemented with 10 % fetal calf serum (FCS, Thermo Scientific Waltham, MA) at 37°C in a humidified 5 % CO2 atmosphere. To enhance adherence of LNCaP cells tissue culture flasks and/or well plates were pre-coated with poly-D-lysine (Merck) according manufacture protocol. Cells were regularly checked for mycoplasma infection. 6.1. Cell binding studies. For the determination of the binding affinity, a competitive binding radioassay was performed. Two 24 well plates were incubated with 50.000 cells 3 to 4 days prior to the cell experiments. After washing the cells twice with warm PBS, new medium was added. For the binding […] cold reference compound F-PSMA-MIC01 were added to the wells shortly before 50 µL of the radioligand [68Ga]PSMA-HBED-CC or [18F]PSMA-1007 to reach a final volume of 500 µL in each well. After incubation of 90 min at 37°C under humidified conditions the cells were washed twice with ice-cold PBS to remove unbound tracer. Cells were detached from the wells using Trypsin supplemented with 25 % EDTA and incubated until cells were completely detached. 900 µL of medium was added and cells were transferred into tubes. The remaining activity in the cells were measured in a γ-counter. Afterwards, the cells were counted in a 1:1 solution of cell suspension and Trypan Blue. The tracer uptake was calculated using Microsoft Excel and corrected for the average number of cells and averaged. The logIC50 value was calculated using the non-linear regression algorithm for a one-site FITlogIC50 […] The graphs represented show the average of the three individual experiments, while the mentioned logIC50 was calculated from the mean of the three experiments; 19

LNCaP tumor = tested on: LNCaP tumor; parameters: method as in PMID 27789722; conditions: cited from earlier work
[2] = distribution coefficient logD, n-octanol/PBS; type: physicochemical; conditions: n-octanol/PBS, pH 7.4, n-octanol/PBS pH 7.4; overall mean
Experimental: page 19: Figure S3: HPLC purification of [18F]PSMA-MIC02 (A) and after 4 h (B). 5. Distribution coefficient LogD. […] cup. 100 µL of the formulated final solution of [18F]PSMA-MIC01 or [18F]PSMA-MIC02 was added and vortexed for 1 minute and centrifuged for 5 min at […]. The different layers were separated and 100 µL of each layer were measured on a γ-counter. Based on the counts per minute (CPM) of each fraction, the partition coefficient was measured with the following formula: log(CPMoctanol/CPMPBS). The obtained data are as followed. Table S2. Counts per minute (CPM) of the 3 indidicually measured triplicates of [18F]PSMA-MIC01 of n- octanol and PBS. Octanol (CPM) PBS (CPM) BLK (CPM) LogD Mean SD […] No 1.2 2823.43 2715328.33 93.59 -2.99 […] No 2.3 394.49 640463.84 93.59 -3.21 […] No 3.2 3690.69 2357291.58 50.84 -2.81 No 3.3 5848.38 3956671.48 52.31 -2.83 -3.01 0.22 18 (1 picture or pasted object on this page, not shown here)

PSMA [3] = target: T1, PSMA; test: cell-based competitive binding radioassay with [68Ga]PSMA-11 as radioligand on LNCaP cells
Experimental: To compare the binding affinity of F‐PSMA‐MIC01 with „gold standard“ PSMA‐tracers, the same assay was performed using the precursor of [^68Ga]PSMA‐11 (Figure 2 D).
Table S3. Counts per minute (CPM) of the 3 indidicually measured triplicates of [18F]PSMA-MIC01 of n- […]
Octanol (CPM) PBS (CPM) BLK (CPM) LogD Mean SD
Prostate cancer cell lines PC-3 and LNCaP were obtained from the American Type Culture Collection (ATCC, Manassas, VA). Cells were cultured in RPMI-1640 (Lonza, Swiss), supplemented with 10 % fetal calf serum (FCS, Thermo Scientific Waltham, MA) at 37°C in a humidified 5 % CO2 atmosphere. To enhance adherence of LNCaP cells tissue culture flasks and/or well plates were pre-coated with poly-D-lysine (Merck) according manufacture protocol. Cells were regularly checked for mycoplasma infection.
6.1. Cell binding studies.
For the determination of the binding affinity, a competitive binding radioassay was performed.
Two 24 well plates were incubated with 50.000 cells 3 to 4 days prior to the cell experiments.
After washing the cells twice with warm PBS, new medium was added. For the binding […]
cold reference compound F-PSMA-MIC01 were added to the wells shortly before 50 µL of the radioligand [68Ga]PSMA-HBED-CC or [18F]PSMA-1007 to reach a final volume of 500 µL in each well. After incubation of 90 min at 37°C under humidified conditions the cells were washed twice with ice-cold PBS to remove unbound tracer. Cells were detached from the wells using Trypsin supplemented with 25 % EDTA and incubated until cells were completely detached. […] The remaining activity in the cells were measured in a γ-counter. Afterwards, the cells were counted in a 1:1 solution of cell suspension and Trypan Blue. The tracer uptake was calculated using Microsoft Excel and corrected for the average number of cells and averaged. The logIC50 value was calculated using the non-linear regression algorithm for a one-site FITlogIC50 using PrismGraphPad 7.2. The graphs represented show the average of the three individual experiments, while the mentioned logIC50 was calculated from the mean of the three

LNCaP (PSMA+) xenografts = test: ex vivo organ distribution, LNCaP xenograft mice; type: in vivo, Balb/c nude mice; conditions: LNCaP (PSMA+) xenograft, dissected after PET scan
Experimental: All groups were evaluated by visual assessment of the PET image and the percentage injected dose per gram (%ID g^−1).
The animal experiments were all performed according to the ethical guidelines and approved by the local animal welfare committee of the University of Groningen (IvD number 15166-06-001. All animals were caged separately in individually ventilated cages.
7-12 week old immune deficient Balb/c nude mice were inoculated with 200 µL of a 1:1 suspension of medium containing approximately 4 x10^6 LNCaP cells (PSMA positive cells) or 5 x 10^6 PC3 cells (PSMA-negative cells) in RPMI-1640, and Matrigel Basement Membrane Matrix High concentration. The cells were subcutaneously inoculated on the right shoulder.
After 3 to 5 weeks for LNCaP-xenografts, 2-3 weeks for PC3-xenografts or when a tumor size of 1cm3 was reached, the animals were transported to the PET imaging facility. For the […]
prepared and 100 µL were injected via penile vein injection 30 min prior to the tracer injection. Animals were anesthetized at 5 % isoflurane and maintained under 2 % isoflurane enriched with O2. The dynamic PET scan was started within 5 min after tracer injection with an acquisition time of 90 min. The static scan was performed 60 min after tracer injection with an acquisition time of 30 min.
7.2. Organ distribution and Metabolite analysis.
After sacrificing the animals, the organs were dissected and measured in a γ-counter. The obtained CPM’s were normalized to %ID/g (Table shown in main text). […]
In order to check for the significant differences, we also checked for the Cohen’s d, a measurement to determine the effect size. It is calculated on the following formula:
Cohen′sD = Mean1− Mean2 . […]

[4] = given as logIC50, single experiments, radioligand [18F]PSMA-1007, read-out: logIC50, individual experiments (converted)

Q: For `O=C(O)CC[C@H](NC(=O)N[C@@H](CCCCNC(=O)c1ccc(-c2cn(CCOCCOCCOc3ccc(CCF)cc3)nn2)cc1)C(=O)O)C(=O)O` [F-PSMA-MIC02], which IC50 (PSMA [1]; [4]) is on record?
A: 0.0447 µM and 0.0457 µM and 0.0309 µM

Q: With `O=C(O)CC[C@H](NC(=O)N[C@@H](CCCCNC(=O)[C@H](Cc1ccc2ccccc2c1)NC(=O)c1ccc(CNC(=O)[C@H](CCC(=O)O)NC(=O)[C@H](CCC(=O)O)NC(=O)c2ccc([18F])nc2)cc1)C(=O)O)C(=O)O` [[^18F]PSMA‐1007] as the compound, how does the LNCaP tumor uptake (LNCaP tumor) read?
A: 8.04±2.4 %ID g^−1

Q: With `O=C(O)CC[C@H](NC(=O)N[C@@H](CCCCNC(=O)c1ccc(-c2cn(CCOCCOCCOc3ccc(CC[18F])cc3)nn2)cc1)C(=O)O)C(=O)O` [[^18F]PSMA‐MIC02] as the compound, how does the logD [2] read?
A: -3.22 ± 0.1

Q: Which “logIC50, individual experiments (No 1-3)” value (PSMA [3]; given as logIC50, single experiments, radioligand [68Ga]PSMA-11, listed as PSMA-11 precursor) does the source give for `O=C(O)CCc1ccc(O)c(CN(CCN(CC(=O)O)Cc2cc(CCC(=O)NCCCCCC(=O)NCCCC[C@H](NC(=O)N[C@@H](CCC(=O)O)C(=O)O)C(=O)O)ccc2O)CC(=O)O)c1` [precursor of PSMA-11, reference compound] here?
A: -7.12 and -7.03 and -7.53

Q: With `O=C(O)CC[C@H](NC(=O)N[C@@H](CCCCNC(=O)c1ccc(-c2cn(CCOCCOCCF)nn2)cc1)C(=O)O)C(=O)O` [F-PSMA-MIC01] as the compound, how does the IC50 (PSMA [3]; given as logIC50, single experiments, radioligand [68Ga]PSMA-11, read-out: logIC50, individual experiments (No 1-3) (converted)) read?
A: 0.0575 µM and 0.138 µM and 0.257 µM

Q: And the IC50 (PSMA [3]; printed as logIC50 (negative values), mean of three experiments, radioligand [68Ga]PSMA-11, 90 min 37°C, read-out: logIC50 (converted))?
A: 0.129 µM

Q: And the IC50 (PSMA [1]; [4])?
A: 0.363 µM and 0.851 µM and 0.219 µM

Q: With `O=C(O)CC[C@H](NC(=O)N[C@@H](CCCCNC(=O)c1ccc(Cn2cc(COCCOCCOc3ccc(CCF)cc3)nn2)cc1)C(=O)O)C(=O)O` [F-PSMA-MIC04] as the compound, how does the IC50 (PSMA [1]; [4]) read?
A: 0.245 µM and 0.151 µM and 0.49 µM

Q: With `O=C(O)CC[C@H](NC(=O)N[C@@H](CCCCNC(=O)c1ccc(Cn2cc(COCCOCCF)nn2)cc1)C(=O)O)C(=O)O` [F-PSMA-MIC03] as the compound, how does the IC50 (PSMA [1]; printed as logIC50 (negative values), mean of n=3 (MIC03 n=4), radioligand [18F]PSMA-1007, read-out: logIC50 (converted)) read?
A: 0.275 µM

Q: Which results are given for `O=C([O-])CN(CCN(CC(=O)[O-])Cc1cc(CCC(=O)NCCCCCC(=O)NCCCC[C@H](NC(=O)N[C@@H](CCC(=O)O)C(=O)O)C(=O)O)ccc1[O-])Cc1cc(CCC(=O)O)ccc1[O-].[68Ga+3].[OH3+]` [[^68Ga]PSMA‐11, reference compound]?
A: ex vivo uptake bone (LNCaP (PSMA+) xenografts): 0.1±0.1 %ID g^−1; ex vivo uptake brain (LNCaP (PSMA+) xenografts): 0.0±0.0 %ID g^−1; ex vivo uptake heart (LNCaP (PSMA+) xenografts): 0.2±0.0 %ID g^−1; ex vivo uptake kidney (LNCaP (PSMA+) xenografts): 69.1±21.1 %ID g^−1; ex vivo uptake large intestine (LNCaP (PSMA+) xenografts): 0.7±0.9 %ID g^−1; ex vivo uptake liver (LNCaP (PSMA+) xenografts): 0.2±0.3 %ID g^−1; ex vivo uptake lungs (LNCaP (PSMA+) xenografts): 1.1±0.4 %ID g^−1; ex vivo uptake muscles (LNCaP (PSMA+) xenografts): 0.2±0.1 %ID g^−1; ex vivo uptake pancreas (LNCaP (PSMA+) xenografts): 0.6±0.6 %ID g^−1; ex vivo uptake plasma (LNCaP (PSMA+) xenografts): 1.0±0.5 %ID g^−1; ex vivo uptake salivary glands (LNCaP (PSMA+) xenografts): 0.9±0.4 %ID g^−1; ex vivo uptake small intestine (LNCaP (PSMA+) xenografts): 0.5±0.6 %ID g^−1; ex vivo uptake spleen (LNCaP (PSMA+) xenografts): 15.9±7.3 %ID g^−1; ex vivo uptake stomach (LNCaP (PSMA+) xenografts): 0.4±0.2 %ID g^−1; ex vivo uptake tumor (LNCaP (PSMA+) xenografts): 6.8±6.3 %ID g^−1; ex vivo uptake urine (LNCaP (PSMA+) xenografts): 45.4±30.8 %ID g^−1; ex vivo uptake whole blood (LNCaP (PSMA+) xenografts): 2.2±3.8 %ID g^−1
